{"source": "patent US20240382508A1", "about": "“REGENERATIVE AGENT FOR BONE TISSUE AND LUNG TISSUE, AND PHARMACEUTICAL COMPOSITION FOR REGENERATING BONE TISSUE AND LUNG TISSUE” (NIIGATA UNIVERSITY, priority 2021, published 2024)", "key": {"[1]": {"tested_on": "rheumatoid arthritis model mice", "assay": "rheumatoid arthritis (CAIA) model, microCT of hind limb", "type": "in vivo, mouse", "description": "Rheumatoid arthritis (CAIA) (a collagen antibody-administered arthritis-inducing cocktail manufactured by Chondrex, Inc. was used, and the details of the production method were performed according to the protocol provided by Iwai Chemicals Co., Ltd.) was induced by using 6-week-old wild-type mice (N=4, male C57BL/6N mice, manufactured by CLEA Japan, Inc.) and 6-week-old DEL-1-deficient mice (N=4, male C57BL/6N mice (manufactured by CLEA Japan, Inc.), the method for producing the deficient mice was as described in Non Patent Document 1), and erythromycin (10 mg/kg) was intraperitoneally administered once every 3 days from the 1st day after the induction. Regarding the DEL-1-deficient mice, a group in which DEL-1 (10 μg) was administered through the tail vein once every 3 days from the 1st day after the CAIA induction, was also prepared. Nine days after the administration, the hind limb of each mouse was examined by microCT."}, "[2]": {"tested_on": "α-SMA-positive mesenchymal stem cells", "assay": "immunofluorescence staining of periodontal tissue of experimental periodontitis mice", "type": "in vivo, mouse", "details": "wild-type mice; jawbone slices", "description": "Next, jawbones of the wild-type mice to which erythromycin had or had not been administered were extracted and fixed, and then slice preparations were produced. Next, immunofluorescence staining was performed by using an anti-α-SMA antibody (manufactured by Abcam, Ltd.) fluorescently labeled with Alexa Fluor (registered trademark) 488 (manufactured by Thermo Fisher Scientific, Inc.), an anti-CD31/PECAM-1 antibody (manufactured by Thermo Fisher Scientific, Inc.) fluorescently labeled with Alexa Fluor (registered trademark) 647 (manufactured by Thermo Fisher Scientific, Inc.), and an anti-Ki67 antibody (manufactured by R&D Systems, Inc.) fluorescently labeled with Alexa Fluor (registered trademark) 594 (manufactured by Thermo Fisher Scientific, Inc.). Observation images (magnification: 200 times) obtained with a fluorescence microscope (ECLIPSE Ni-E, manufactured by Nikon Corporation) are shown in FIG. 5."}, "[3]": {"tested_on": "experimental periodontitis model mice", "assay": "bone regeneration in experimental periodontitis model mice (teeth ligated with silk threads)", "type": "in vivo, mouse", "from_the_text": "Experimental periodontitis model mice in which teeth are ligated with silk threads are useful models for inflammatory bone destruction research because inflammations and bone resorption occur in about 10 days after the ligation. The above-described experimental periodontitis models were produced by using 6-week-old wild-type mice (N=8, male C57BL/6N mice, manufactured by CLEA Japan, Inc.), 22-month-old aging mice (N=4, male C57BL/6N mice, manufactured by CLEA Japan, Inc.), and 6-week-old DEL-1-deficient mice (N=8, male C57BL/6N mice (manufactured by CLEA Japan, Inc.), a method for producing the deficient mice was as described in Non Patent Document 1), the silk threads were removed 10 days after the ligation, a remission phase of inflammation of 5 days passed, and in the wild-type mice, new bone formation was recognized at the site of resorbed bone defect while no repair mechanism of the periodontal tissue by DEL-1 was recognized.\nThe experimental periodontitis models described in Example 1 were produced by using 6-week-old wild-type mice (N=8, male C57BL/6N mice, manufactured by CLEA Japan, Inc.), 22-month-old aging mice (N=4, male C57BL/6N mice, manufactured by CLEA Japan, Inc.), and 6-week-old DEL-1-deficient mice (N=8, male C57BL/6N mice (manufactured by CLEA Japan, Inc.), a method for producing the deficient mice was as described in Non Patent Document 1), the silk threads were removed 10 days after the ligation to experimentally induce periodontitis, subsequently a bone regeneration period of 5 days was provided, and then the amount of regeneration of resorbed bone was measured using a stereomicroscope and image measurement software (manufactured by Nikon Corporation). Erythromycin (10 mg/kg) and ethanol (final concentration 0.1% by mass) were intraperitoneally administered once after the removal of the silk threads. In addition, DEL-1 (1 μg) and Fc control (0.84 μg) were directly inoculated into the gingiva after the removal of the silk threads. The results are shown in FIG. 3 (left: wild-type mice, right: DEL-1-deficient mice) and FIG. 4 (aging mice).\nNext, the experimental periodontitis model described in Example 1 was produced by using 22-month-old aging mice (N=4, male C57BL/6N mouse, manufactured by CLEA Japan, Inc.), the silk threads were removed 10 days after the ligation to experimentally induce periodontitis, subsequently a bone regeneration period of 5 days was provided, and the amount of regeneration of resorbed bone was measured using a stereomicroscope and image measurement software (manufactured by Nikon Corporation). Erythromycin (ERM) (20 mg/kg), azithromycin (AZM) (20 mg/kg), clarithromycin (CLM) (20 mg/kg), and ethanol (final concentration 0.1% by mass) as a control were intraperitoneally administered once after the removal of the silk threads. […] In addition, there was no difference in the amount of bone regeneration between the macrolide antimicrobial agent-administered groups."}, "DEL-1": {"tested_on": "DEL-1", "details": "versus resolvin D1 or DHEA; Non-Patent Document 1; cited from earlier work"}, "[4]": {"tested_on": "iCell mesenchymal stem cells", "assay": "bone nodule measurement in mesenchymal stem cells induced from human iPS cells", "type": "cell-based", "details": "10 μg/mL for each; 15 days; bone differentiation medium", "description": "iCell (registered trademark) mesenchymal stem cells (iCell (registered trademark) MSCs) (#01279, manufactured by Fujifilm Corporation) (1×10^4 cells/mL) obtained by inducing human mesenchymal stem cells from iPS cells, were cultured in α-MEM and a bone differentiation medium (containing 50 μg/mL ascorbic acid and 10 mM β-glycerol 2-phosphate). Ethanol (final concentration 0.1% by mass), or erythromycin, clarithromycin, or azithromycin (10 μg/mL for each) was added to the medium. The medium was exchanged every 3 days, and after 15 days, the cells were stained with Alizarin red S, followed by performing of bone nodule measurement. The results are shown in FIG. 18 (stained images) and FIG. 19 (graph showing the proportion of bone nodules). In FIG. 18 and FIG. 19, the ethanol (final concentration 0.1% by mass)-added group is a control. In FIG. 19, the symbol * indicates p≤0.05, the symbol ** indicates p≤0.01, the symbol *** indicates p≤0.001, and the symbol **** indicates p≤0.0001."}}}
{"smiles": "CC[C@H]1OC(=O)[C@H](C)[C@@H](O[C@H]2C[C@@](C)(OC)[C@@H](O)[C@H](C)O2)[C@H](C)[C@@H](O[C@@H]2O[C@H](C)C[C@H](N(C)C)[C@H]2O)[C@](C)(O)C[C@@H](C)C(=O)[C@H](C)[C@@H](O)[C@]1(C)O", "note": "[erythromycin]", "values": [{"measurement": "bone destruction (FIG. 6)", "setting": "[1]; DEL-1-deficient mice, erythromycin 10 mg/kg intraperitoneally or DEL-1 10 μg tail vein once every 3 days", "value": "bone destruction was not suppressed"}, {"measurement": "bone destruction (FIG. 6)", "setting": "[1]; wild-type mice, erythromycin 10 mg/kg intraperitoneally once every 3 days", "value": "bone destruction was suppressed"}, {"measurement": "proportion of α-SMA-positive mesenchymal stem cells (FIG. 5)", "setting": "[2]", "value": "the proportion of α-SMA-positive mesenchymal stem cells was increased"}, {"measurement": "bone regeneration (FIG. 3)", "setting": "[3]; 6-week-old wild-type mice, erythromycin 10 mg/kg intraperitoneally once, 5 days regeneration period", "value": "bone regeneration was recognized irrespective of the presence or absence of the administration of erythromycin"}, {"measurement": "bone regeneration (FIG. 9)", "setting": "[3]; 22-month-old aging mice, 20 mg/kg intraperitoneally once, 5 days regeneration period", "value": "bone regeneration was recognized"}, {"measurement": "bone regeneration (FIG. 4)", "setting": "[3]; 22-month-old aging mice, erythromycin 10 mg/kg intraperitoneally once or DEL-1 1 μg into the gingiva, 5 days", "value": "bone regeneration was recognized"}, {"measurement": "bone regeneration (FIG. 3)", "setting": "[3]; DEL-1-deficient mice, erythromycin 10 mg/kg intraperitoneally once or DEL-1 1 μg into the gingiva, 5 days", "value": "bone regeneration was not recognized"}, {"measurement": "DEL-1 induction potency relative to resolvin D1 or DHEA", "setting": "DEL-1", "value": "about three"}, {"measurement": "formation of bone nodules (FIG. 18, FIG. 19)", "setting": "[4]", "value": "the formation of bone nodules was recognized"}]}
